Measurements reported in paper PMC7650794, “Pharmacological Modulation of Blood–Brain Barrier Permeability by Kinin Analogs in Normal and Pathologic Conditions” (Pharmaceuticals, 2020).
“Also recorded” adds a separate entry of the source. Non-standard residues stand in square brackets, D forms with d. Residues, ends and D or L forms follow the SMILES beside them. No end group written: not given here. Hyp = O=C(O)[C@@H]1C[C@@H](O)CN1; 2Thi = N[C@@H](Cc1cccs1)C(=O)O; Gly(N-cHex) = O=C(O)CNC1CCCCC1

What was measured:
human B2R [1] = target: T1, human B2R (Homo sapiens, UniProt P30411); assay: IP-One accumulation assay, human B2R-HEK293 cells; type: cell-based; conditions: for EC50: IP1 accumulation, 30 min, room temperature, pH 7.4, 50 mM LiCl, human B2R-HEK293, 15,000 cells per well, mean of two independent experiments performed in duplicates, read-out: IP1 Assays (EC50; nM)
T1 construct: expressed in transfected cells; host or cells: QBI HEK 293A cells, lentiviral transduction with pCDH-BDKRB2, puromycin selection
T1 sequence (P30411 1-391): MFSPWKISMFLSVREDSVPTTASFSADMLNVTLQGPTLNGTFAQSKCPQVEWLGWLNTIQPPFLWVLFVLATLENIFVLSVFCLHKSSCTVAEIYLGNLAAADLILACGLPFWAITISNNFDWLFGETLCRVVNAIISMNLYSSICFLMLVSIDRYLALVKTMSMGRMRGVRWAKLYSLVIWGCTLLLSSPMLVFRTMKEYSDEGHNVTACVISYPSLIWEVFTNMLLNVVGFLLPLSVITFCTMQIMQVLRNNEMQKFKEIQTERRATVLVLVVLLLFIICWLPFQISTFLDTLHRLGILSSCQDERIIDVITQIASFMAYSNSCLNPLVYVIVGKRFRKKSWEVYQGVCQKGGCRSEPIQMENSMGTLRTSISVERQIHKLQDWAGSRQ
Procedure: The IP-One assay was performed on living, adherent human B2R-HEK293 cells according to the manufacturer’s recommendations (Cisbio, #62IPAPEB, Bedford, MA, USA). […] IP1-d2 and anti-IP1-Cryptate were added for at least 1 h. Fluorescence signal was measured using a Tecan M1000 plate reader (excitation at 320 nm and emission at 620 and 665 nm). EC50 values were calculated by curve-fitting using GraphPad Prism 8.2.

human B2R [2] = target: T1, human B2R; assay: Radioligand displacement binding assay, [3H]BK, human B2R-HEK293 cells; conditions: for IC50: displacement of 1 nM [3H]BK, living adherent HEK293 cells stably expressing human B2R, serum-free DMEM, 1.5 h, 4 °C, mean of two independent experiments performed in duplicates; for binding affinity at human B2R, in words: HEK293 cells stably expressing human B2R
Procedure: The pCDH-BDKRB2 vector was produced from the plasmid pcDNA3.1/human BDKRB2 by PCR amplification using the primers 5′-[…]-3′ and 5′-[…]-3′, and introduced into pCDH-CMV-MCS-EF1 vector using BamHI et XbaI restriction sites. Lentiviruses were produced from pCDH-BDKRB2 vector in HEK293T cells using the X-tremeGENE HP transfection reagent (Millipore-Sigma, Oakville, ON, Canada). Lentiviruses were harvested 48 h post-transfection and used to infect QBI HEK 293A cells (ATCC). Transduced cells were selected using 5 µg/mL of puromycin (Thermo Fisher, Burlington, On, Canada).
Radioligand displacement binding assays were performed as we previously described, with slight modifications. HEK293 cells stably expressing human B2R were used for these assays (see text above). […] Radioactivity of samples was measured by a β-scintillation counter (PerkinElmer, Woodbridge, On, Canada). Binding affinities of peptides were expressed in terms of IC50 values—the molar concentration of an unlabeled agonist causing 50% displacement of specific binding (GraphPad Prism 8.2).

GBM cells = conditions: vs. temozolomide (TMZ); ref [33]; cited from earlier work
BBB / brain cancer = test system: BBB / brain cancer; parameters: method as in PMID 22709590; conditions: ref [33]; cited from earlier work
[3] = test system: BBB, irradiated mouse brain; assay: DCE-MRI of BBB permeability to Gd-DTPA in irradiated mouse brain; type: in vivo; conditions: T1-weighted, 10 months after 45 Gy; Gd-DTPA alone or with NG291 50 µg/kg i.v.
Text: Female Balb/c mice were anesthetized using 1.5 L/min oxygen containing isoflurane (3% for induction, 2% for maintenance) and positioned on a custom-designed stereotactic bed compatible with the Leksell Gamma Knife Perfexion (Elekta AB, Stockholm, Sweden). A maximum dose of 45 Gy (23.1 Gy at the 50% isodose) was delivered through 4 mm collimators in the right hemisphere of the brain. Mouse and human brains have different sensitivities to radiation. This dose was selected because it allows the development and slow progression of radiation necrosis (approximatively appearing at 17 months post-irradiation in T2-weighted MRI; Figure 4), similar to what may be observed in brain cancer patients who received radiotherapy. After irradiation, mice were placed on a heating pad to recover, and were then returned to their cages.
For dynamic contrast-enhanced (DCE)-MRI imaging, pre-contrast T1-weighted imaging with an array of flip angles (α = 10°, 20°, 25°, 35°, 50°) was performed to acquire a T1 map with the following parameters: TR = 100 ms, TE = 2.79 ms, data matrix = 128 × 128, FOV = 20 × 20 mm^2; 1 average; 10 slices; 1 mm slice thickness. Then, a dynamic acquisition with the same parameters and a fixed angle at 30° was acquired before, during, and after injection of contrast agent. […]

leucocytes, brain = conditions: exogenous BK; ref [21],[24]; cited from earlier work
BBB / BTB = test system: BBB / BTB; parameters: method as in 2 sources, one per row (each row's own in cited_ref): ref [2],[13] = [2]; PMID 15153840; doi:10.1177/107327480401100304; 2. Black K.L. Ningaraj N.S. Modulation of brain tumor capillaries for enhanced drug delivery selectively to brain tumor Cancer Control. 2004 11 165 173 10.1177/107327480401100304 15153840 || [13]; PMID 11286321; doi:10.2165/00003088-200140020-00003; 13. Emerich D.F. Dean R.L. Osborn C. Bartus R.T. The development of the bradykinin agonist labradimil as a means to increase the permeability of the blood-brain barrier: From concept to clinical evalu ||| ref [2],[46],[47] = [2]; PMID 15153840; doi:10.1177/107327480401100304; 2. Black K.L. Ningaraj N.S. Modulation of brain tumor capillaries for enhanced drug delivery selectively to brain tumor Cancer Control. 2004 11 165 173 10.1177/107327480401100304 15153840 || [46]; PMID 20146088; doi:10.1007/s11060-010-0124-x; 46. Liu L.B. Xue Y.X. Liu Y.H. Bradykinin increases the permeability of the blood-tumor barrier by the caveolae-mediated transcellular pathway J. Neurooncol. 2010 99 187 194 10.1007/s11060-010-0124-x || [47]; PMID 12023511; doi:10.1124/jpet.301.3.838; 47. Ningaraj N.S. Rao M. Hashizume K. Asotra K. Black K.L. Regulation of blood-brain tumor barrier permeability by calcium-activated potassium channels J. Pharmacol. Exp. Ther. 2002 301 838 851 10.112; conditions: increased numbers of pinocytotic vesicles or caveolae; ref [2],[46],[47]; cited from earlier work
Text: Kinin effects are mediated through specific activation of two types of receptors, namely, the kinin B1 (B1R) and B2 receptors (B2R), both belonging to the G-protein-coupled receptor family. […] The strategy exploiting targeted stimulation of the kinin receptors could perhaps ...

normal mice = assay: Tolerability / blood pressure effect in anesthetized normal mice; type: in vivo, mouse
[4] = test system: 4T1-luc mammary cancer cells, brain metastases in mice; assay: 4T1-luc breast cancer brain metastasis model; type: in vivo, mouse; conditions: NG291 50 μg/kg over 5 min i.v., single dose, 18 days, 6–8 animals
Procedure: Mice were anesthetized using 1.5 L/min oxygen-containing isoflurane (3% for induction, 2% for maintenance) and secured with tape in a supine position on a heating pad. A total of 1 × 10^5 4T1-Luc cells suspended in 100 µL of sterile saline was slowly injected into the left ventricle of the heart using a 1 mL Hamilton syringe mounted with a 30G needle as described previously. For BBB disruption experiments, a cannula was placed in the caudal vein and a single dose of NG291 (50 µg/kg/5 min) was infused into the caudal vein while simultaneously injecting the cancer cells intracardially. Successful intracardiac injection and tumor development was evaluated weekly by bioluminescence imaging. The development of brain metastatic tumor burden was determined by histological analysis.
Brain sections from mice inoculated with 4T1-Luc cells were stained with hematoxylin-eosin (H and E) for histological examination and metastases quantification using the NanoZoomer Digital Pathology software (Hamamatsu, NDP.view version 2.7.25). H and E staining was performed on brain sections every 20–30 µm. The relative total area and number of metastatic foci in the entire brain section were calculated from manual delineation of metastases in digital images of H and E-stained brain slides using the NanoZoomer NDP.view2 viewing software free hand tool. […] A total of 68 slices were analyzed.

[5] = test system: angiotensin-converting enzyme (ACE, alias kininase II); conditions: ref [26]; cited from earlier work

N=C(N)NCCC[C@@H](N)C(=O)N[C@@H](CCCNC(=N)N)C(=O)N1CCC[C@H]1C(=O)N1C[C@H](O)C[C@H]1C(=O)NCC(=O)N[C@H](C(=O)N[C@@H](CO)C(=O)N1[C@H](C(=O)N[C@H](C(=O)N[C@@H](CCCNC(=N)N)C(=O)O)C2Cc3ccccc3C2)C[C@@H]2CCCC[C@@H]21)C1Cc2ccccc2C1 [B9972, DArg[Hyp^3, Igl^5, Oic^7, Igl^8]-BK]
EC50 (human B2R [1]): 158 nM
IC50 (human B2R [2]): 199 nM

N=C(N)NCCC[C@@H](N)C(=O)N[C@H](Cc1ccccc1)C(=O)N1CCC[C@@H]1C(=O)N[C@H](CO)C(=O)N[C@H](Cc1ccccc1)C(=O)NCC(=O)N1CCC[C@@H]1C(=O)N1CCC[C@@H]1C(=O)N[C@H](CCCNC(=N)N)C(=O)O [RI-BK, D(retroinverso)-BK] (H-[dR][dF][dP][dS][dF]G[dP][dP][dR]-OH; N-terminus and C-terminus assumed)
agonist activity/potency at human B2R, in words (human B2R [1]; IP1, HEK293 cells stably expressing human B2R): no binding affinity and agonist activity at human B2R
EC50 (human B2R [1]): > 10000 nM
binding affinity at human B2R, in words (human B2R [2]): no binding affinity
IC50 (human B2R [2]): > 10000 nM

COc1cccc2c1C(=O)c1c(O)c3c(c(O)c1C2=O)C[C@@](O)(C(=O)CO)C[C@@H]3O[C@H]1C[C@H](N)[C@H](O)[C@H](C)O1 [DOX, doxorubicin]
potency for killing GBM cells in vitro (GBM cells): more potent than temozolomide (TMZ) for killing GBM cells in vitro
BBB crossing and in vivo efficacy in brain cancer (BBB / brain cancer): does not readily cross the BBB and so shows poor efficacy in in vivo models

CNC[C@H](O)[C@@H](O)[C@H](O)[C@H](O)CO.CNC[C@H](O)[C@@H](O)[C@H](O)[C@H](O)CO.O=C([O-])CN(CCN(CC(=O)[O-])CC(=O)O)CCN(CC(=O)[O-])CC(=O)O.[Gd+3] [Gd-DTPA]
contrast enhancement in the irradiated hemisphere [3]: Minimal contrast enhancement was observed in the irradiated hemisphere

RPPGFSPFR [BK, H-Arg^1-Pro^2-Pro^3-Gly^4-Phe^5-Ser^6-Pro^7-Phe^8-Arg^9-OH]
brain trafficking of IV-infused leucocytes (leucocytes, brain): can increase brain trafficking of IV-infused leucocytes
BTB permeability by the transcellular pathway (BBB / BTB): may increase BTB permeability, as well by means of the transcellular pathway
binding affinity at human B2R, in words (human B2R [2]): higher binding affinity (IC50)

N=C(N)NCCC[C@H](NC(=O)[C@H](Cc1cccs1)NC(=O)CN(C(=O)[C@H](CO)NC(=O)[C@H](Cc1cccs1)NC(=O)CNC(=O)[C@@H]1C[C@@H](O)CN1C(=O)[C@@H]1CCCN1C(=O)[C@@H](N)CCCNC(=N)N)C1CCCCC1)C(=O)O [NG291, [Hyp^3, Thi^5, ^NChg^7, Thi^8]-BK] (H-RP[Hyp]G[2Thi]S[Gly(N-cHex)][2Thi]R-OH)
EC50 (human B2R [1]): 0.9 nM
hypotensive effect (normal mice; high dose i.v. NG291, ketamine/xylazine-anesthetized normal mice, strong but reversible, not shown): about -35 mmHg
tolerability (normal mice; high dose i.v. NG291, normal mice): generally well-tolerated
effect on brain tumor burden and number of metastases, in words [4]: did not significantly increase brain tumor burden; also recorded: no difference in terms of both area and number of metastases
protection against enzymatic degradation by ACE [5]: fully protected against enzymatic degradation by the angiotensin-converting enzyme
IC50 (human B2R [2]): 3 nM
